# Experimental data reported in patent US20060069104A1, “Neurotrophic factor production accelerator” (priority 2002, published 2006).
# System: GDNF mRNA in cultured astroglia
# Experiment: Quantification of GDNF mRNA by RT-PCR in cultured astroglia
# Assay type: cell-based, Wistar rat
# Conditions: cultured rat astroglia
# Experimental: Astroglia was prepared from the brain of a 1 to 2-day-old Wistar rat. It was inoculated to a 75 cm^2 culture flask, and incubated in Eagle's minimum essential medium supplemented with 10% fetal bovine serum for 10 to 14 days. Then, it was shaken overnight at 250 rpm, and microglia and oligodendroglia on the astroglia monolayer were removed. Astroglia was dispersed in 0.25% trypsin (1:400, Invitrogen), and inoculated to a 6-well plate. It was further incubated for 7 to 10 days, and confluent cells were used for the experiment.
# The cultured astroglia prepared by the above-mentioned method was incubated in serum-free Eagle's minimum essential medium for 48 hours. The total RNA was prepared by AGPC (Acid Guanidinium-Phenol-Chloroform) method (Chomczynski P., and Sacchi N., Anal. Biochem. 162, 156-159 (1987)). […] The fluorescence intensity of the PCR product was imaged by Fluoro Imager (Molecular Dynamics), and fluorescence bands were quantified by NIH Image. The amount of the PCR product of the eurotrophic factor was standardized using the amount of the β-actin PCR product of cDNA, and the amount of relative mRNA was determined. The activity of N-(4-acetyl-1-piperazinyl)-p-fluorobenzamide monohydrate (hereinafter to be also referred to as a test drug.) on neurotrophic factor production was evaluated by a Tukey-Kramer assay. […]
smiles,measurement,setting,value
"CC(=O)N1CCN(NC(=O)c2ccc(F)cc2)CC1.O [test drug, N-(4-acetyl-1-piperazinyl)-p-fluorobenzamide monohydrate]",amount of GDNF mRNA (relative mRNA amount standardized using the amount of the β-actin PCR product),"serum-free medium, from 3 hours after the treatment with the test drug, RT-PCR, Tukey-Kramer",significant increase
same,time of peak of GDNF mRNA amount after treatment,time-course after treatment with the test drug (FIG. 1),6 h
